Key:
Type in all cases: cell-based, human
[1] = tested on: Lenalidomide-resistant H929 cell lines (H929 R10-1 through 4); test: Anti-proliferative effect on lenalidomide-resistant H929 cell lines; conditions: lenalidomide-resistant H929 lines with ~50% reduction in cereblon protein
Procedure: Cell density and viability were monitored using the Vi-cell XR cell viability analyzer (Beckman Coulter). Once cell viability was >90% and cell density was ˜5×10^5 cells/mL (log phase), the cells were incubated at the indicated concentrations of a TOR kinase inhibitor and/or second active agent at a final concentration of 0.1% vehicle (DMSO). For combination studies, the TOR kinase inhibitor and the second active agent were simultaneously added to cells in triplicate. Cell proliferation was determined after 5 days of treatment by flow cytometry on unfixed cells and using 7-aminoactinomycin D (7AAD) (Molecular Probes, Carlsbad, Calif., USA) exclusion (0.25% final dye concentration) for viability assessment. Flow cytometry was utilized to gate on the target cells and to measure 7AAD negative and 7AAD positive cells. Stained cells were analyzed on a FACS Array flow cytometer with standard BD FACS Array System software (BDBiosciences, Palo Alto, Calif.). The percentage of surviving cells (7AAD negative) was calculated relative to cells treated with vehicle (DMSO) control. For single compound treatments (TOR kinase inhibitor and second active agents separately), the average values from triplicates were plotted to obtain IC50 values using software XLfit from IDBS. […]

SK-Hep-1 cells = test: Anchorage independent growth (colony formation) assay; conditions: single agent, concentrations of 0.1 to 100 μM
Procedure: (§1) Cell Lines/Cells. Human cell lines HepG2 and SK-Hep-1 cells were obtained from American Type Culture Collection (ATCC; Manassas, Va.). Cells were cultured in DMEM (Dulbecco's Modified Eagle's Medium) (Mediatech; Mannasas, Va.) with 10% Premium FBS (Lonza, Walkersville, Md.).
(§2) (1) Single Agent Colony Formation Assay. Nobel Agar (1.2 grams; BD; Franklin Lakes, N.J.) was placed in a 100-mL sterile bottle. Sterile water (100 mL) was added and microwaved until the agar boiled. Equal volumes of agar and 2×RPMI medium (ECE Scientific; Doylestown, Pa.) were mixed and 300 μL were transferred to each well in a 24-well flat bottom plate (BD; Franklin Lakes, N.J.). Plates were kept at 4° C. until the agar solidified. Cultures of HepG2 and SK-Hep-1 cells were harvested and resuspended in culture medium at 3.6×10^3 cells/mL. Equal volumes of agar, 2×RPMI, and cell suspension (1:1:1) were mixed in a sterile tube and 500 μL/well were immediately transferred into the 24-well plates. Plates were kept at 4° C. until the agar solidified. Culture medium (500 μL) containing compound or DMSO was added to each well (final DMSO concentration for each treatment was 0.2%). Compound 1 was tested at final concentrations of 0.1, 0.3, 1, 3, 10 and 30 μM. […]
(§3) Significance versus the DMSO control was calculated using One Way ANOVA and Dunnett's Post test or unpaired t tests using GraphPad Prism v5.01.

HepG2 cells = test: as above; conditions: single agent, concentrations of 0.1 to 100 μM
Procedure: as §1, §2, §3

[2] = tested on: lenalidomide-sensitive and resistant myeloma cell lines; test: Combination effects in lenalidomide-sensitive and resistant myeloma cell lines; conditions: multiple myeloma cell lines in vitro
Description: Cell lines and cell culture: Cell lines were purchased from American Type Culture Collection (ATCC) and maintained in culture medium recommended by ATCC. […] Multiple myeloma (MM) cell lines that were used or can be used include the following: NCI-H929, LP-1, MM1.s, U266B1, DF-15 and RPMI-8226 human MM-derived cell lines. The […] ® resistant cell lines H929/R1, H929/R2, H929/R3 and H929/R4 were established by continuous exposure of H929 parental cells (H929) to increasing concentrations of […] ® for a minimum of 5 months. The control cell line H929/D was established by continuous exposure of H929 parental cells to 0.1% DMSO.
The number of cells affected by compound treatment was normalized to the DMSO control (100% viability) and the data was imported into the CalcuSyn software (V2.1, Biosoft). Synergism was quantitated by the combination index (CI) using CalcuSyn according to Chou-Talalay's CI method with mathematical modeling and simulations. […] ED50 is the median effect dose at which a 50% growth inhibition is achieved.
Cell density and viability were monitored using the Vi-cell XR cell viability analyzer (Beckman Coulter). […] Cell proliferation was determined after 5 days of treatment by flow cytometry on unfixed cells and using 7-aminoactinomycin D (7AAD) (Molecular Probes, Carlsbad, Calif., USA) exclusion (0.25% final dye concentration) for viability assessment. […]

| Structure (SMILES) | Anti proliferative effects, single agent [1] | Anti-colony forming activity (SK-Hep-1 cells) | Anti-colony forming activity (HepG2 cells) | Dependence of activity on cereblon protein levels [2] |
| --- | --- | --- | --- | --- |
| CO[C@H]1CC[C@H](N2C(=O)CNc3ncc(-c4ccc(C(C)(C)O)nc4)nc32)CC1 [Compound 1, 7-(6-(2-hydroxypropan-2-yl)pyridin-3-yl)-1-((1r,4r)-4-methoxycyclohexyl)-3,4-dihydropyrazino-[2,3-b]pyrazin-2(1H)-one] | potent anti proliferative effects | dose-dependent and significant anti-colony forming activity | dose-dependent and significant anti-colony forming activity | independent of cereblon protein levels |
| CCN1C(=O)CNc2ncc(-c3ccc(-c4nc[nH]n4)nc3C)nc21 [Compound 2, 1-ethyl-7-(2-methyl-6-(1H-1,2,4-triazol-3-yl)pyridin-3-yl)-3,4-dihydropyrazino[2,3-b]pyrazin-2(1H)-one] | potent anti proliferative effects |  |  | independent of cereblon protein levels |

Source: patent publication US20140314752A1, “METHODS FOR TREATING CANCER USING TOR KINASE INHIBITOR COMBINATION THERAPY” (Signal Pharmaceuticals, LLC, priority 2013, published 2014)
